Results reported in patent US20080318943A1, “Compounds and Uses Thereof - 848” (ASTRAZENECA AB, priority 2007, published 2008).

Legend:
[1] = target: T1, GABAA2 receptors (α2, β3, γ2 receptor subunits transfected into Sf9 cells) (Homo sapiens, UniProt P18507+P47869); test: GABAA2 Binding Method ([3H]-Flunitrazepam displacement); conditions: [3H]-Flunitrazepam ~2 nM, α2β3γ2 Sf9 membranes, 1 hr at 4° C.
T1 construct: host or cells: Sf9 cells (membranes)
Method in brief: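 Displacement of [3H]-flunitrazepam (~2 nM in assay) from recombinant human α2β3γ2 receptors in Sf9 membranes; 1 h incubation at 4 °C, harvest by filtration. Values reported as percent of control, IC50 and Ki.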

GABAA receptor α1β2γ2 = target: T2, GABAA receptor α1β2γ2 (Homo sapiens, UniProt P14867+P18507); test: Two-electrode voltage-clamp potentiation of GABA EC10 current in Xenopus oocytes, GABAA1; type: cell-based; conditions: percentage potentiation of GABA EC10 current divided by that of diazepam
T2 construct: expressed in transfected cells; host or cells: Xenopus laevis oocytes injected with cRNA
Method in brief: (§1)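 Human GABAA receptors expressed in Xenopus oocytes by cRNA injection (α:β:γ molar ratio ~1:1:10 for α1β2γ2, 1:1:1 for α2β3γ2), recorded 2-10 days later by two-electrode voltage clamp at −60 mV in ND-96, pH 7.5. Modulator preapplied 30 s before GABA at per-oocyte EC10. Peak-current percent potentiation over GABA alone, normalised to diazepam.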

GABAA receptor α2β3γ2 = target: T3, GABAA receptor α2β3γ2 (Homo sapiens, UniProt P18507+P47869); test: Two-electrode voltage-clamp potentiation of GABA EC10 current in Xenopus oocytes, GABAA2; type: cell-based; conditions: percentage potentiation of GABA EC10 current divided by that of diazepam
T3 construct: expressed in transfected cells; host or cells: Xenopus laevis oocytes injected with cRNA
Method in brief: as §1

T1 sequence (P47869 29-451): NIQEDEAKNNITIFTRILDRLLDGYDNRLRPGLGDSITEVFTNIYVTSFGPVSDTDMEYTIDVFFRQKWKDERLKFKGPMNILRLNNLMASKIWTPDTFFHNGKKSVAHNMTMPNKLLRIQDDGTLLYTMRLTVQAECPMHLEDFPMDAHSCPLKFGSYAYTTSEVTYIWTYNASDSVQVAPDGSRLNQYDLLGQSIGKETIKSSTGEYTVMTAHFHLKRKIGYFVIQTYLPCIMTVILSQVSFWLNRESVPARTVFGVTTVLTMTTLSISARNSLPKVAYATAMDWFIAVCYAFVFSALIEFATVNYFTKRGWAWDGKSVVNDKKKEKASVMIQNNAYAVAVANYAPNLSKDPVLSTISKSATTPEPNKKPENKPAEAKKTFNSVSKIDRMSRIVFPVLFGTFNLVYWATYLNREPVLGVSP
T1 sequence (P28472 26-473 partner): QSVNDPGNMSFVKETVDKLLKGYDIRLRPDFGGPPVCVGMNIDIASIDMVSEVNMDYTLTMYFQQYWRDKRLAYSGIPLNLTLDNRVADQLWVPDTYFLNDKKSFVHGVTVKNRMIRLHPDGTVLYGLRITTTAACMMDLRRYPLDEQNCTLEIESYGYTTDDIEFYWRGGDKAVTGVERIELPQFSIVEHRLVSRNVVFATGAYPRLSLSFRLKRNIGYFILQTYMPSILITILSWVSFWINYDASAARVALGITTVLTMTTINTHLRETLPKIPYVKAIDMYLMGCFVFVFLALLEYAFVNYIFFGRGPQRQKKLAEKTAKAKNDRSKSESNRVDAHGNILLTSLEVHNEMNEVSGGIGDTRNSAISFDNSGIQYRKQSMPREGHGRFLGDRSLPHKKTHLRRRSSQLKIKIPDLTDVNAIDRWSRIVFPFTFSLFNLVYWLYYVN
T1 sequence (P18507 40-475): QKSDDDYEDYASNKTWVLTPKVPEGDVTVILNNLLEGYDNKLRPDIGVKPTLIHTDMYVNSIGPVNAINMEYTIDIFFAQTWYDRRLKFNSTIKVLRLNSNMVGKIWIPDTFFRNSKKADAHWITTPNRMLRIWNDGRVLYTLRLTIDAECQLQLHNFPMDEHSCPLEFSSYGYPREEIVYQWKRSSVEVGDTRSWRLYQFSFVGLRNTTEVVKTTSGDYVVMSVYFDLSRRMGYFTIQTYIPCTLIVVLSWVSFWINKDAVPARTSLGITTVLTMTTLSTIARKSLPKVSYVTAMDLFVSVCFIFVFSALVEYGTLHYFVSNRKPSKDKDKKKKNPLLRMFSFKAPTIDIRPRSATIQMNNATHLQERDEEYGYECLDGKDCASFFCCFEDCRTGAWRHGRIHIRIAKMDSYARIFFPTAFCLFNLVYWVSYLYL
T3 sequence (P47869 29-451): as the sequence (P47869 29-451) above
T3 sequence (P28472 26-473 partner): as the sequence (P28472 26-473 partner) above
T3 sequence (P18507 40-475): as the sequence (P18507 40-475) above
T2 sequence (P14867 28-456): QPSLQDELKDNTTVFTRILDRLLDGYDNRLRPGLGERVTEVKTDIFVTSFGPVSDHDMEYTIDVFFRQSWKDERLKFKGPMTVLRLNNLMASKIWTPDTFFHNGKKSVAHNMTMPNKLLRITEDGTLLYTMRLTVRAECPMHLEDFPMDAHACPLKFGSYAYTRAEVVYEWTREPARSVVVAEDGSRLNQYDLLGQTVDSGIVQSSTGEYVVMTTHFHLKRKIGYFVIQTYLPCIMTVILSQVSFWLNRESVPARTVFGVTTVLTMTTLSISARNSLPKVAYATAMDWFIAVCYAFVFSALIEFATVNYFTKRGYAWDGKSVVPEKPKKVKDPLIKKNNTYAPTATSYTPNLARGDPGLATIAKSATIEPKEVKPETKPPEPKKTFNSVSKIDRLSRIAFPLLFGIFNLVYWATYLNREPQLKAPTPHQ
T2 sequence (P47870 25-512 partner limits assumed): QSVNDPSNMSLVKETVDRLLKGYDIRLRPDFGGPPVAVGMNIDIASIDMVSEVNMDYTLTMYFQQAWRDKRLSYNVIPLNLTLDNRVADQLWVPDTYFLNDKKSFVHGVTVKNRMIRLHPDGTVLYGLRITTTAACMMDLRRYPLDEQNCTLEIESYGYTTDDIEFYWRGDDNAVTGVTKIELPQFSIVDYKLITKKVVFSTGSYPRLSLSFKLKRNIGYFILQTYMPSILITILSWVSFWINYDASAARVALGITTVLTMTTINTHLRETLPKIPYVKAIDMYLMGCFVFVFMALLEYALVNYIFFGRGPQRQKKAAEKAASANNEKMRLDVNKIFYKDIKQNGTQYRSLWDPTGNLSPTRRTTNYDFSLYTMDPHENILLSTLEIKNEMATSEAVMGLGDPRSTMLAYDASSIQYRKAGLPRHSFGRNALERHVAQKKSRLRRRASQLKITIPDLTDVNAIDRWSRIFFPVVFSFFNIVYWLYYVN
T2 sequence (P18507 40-475): as the sequence (P18507 40-475) above

Structure (SMILES)	Ki [1]	Relative Potentiation for GABAA1 (GABAA receptor α1β2γ2)	Relative Potentiation for GABAA2 (GABAA receptor α2β3γ2)
COc1cccc(-c2cccc3c(N)c4c(nc23)CN(C2CC2)C4=O)c1F [Example 22, 9-Amino-2-cyclopropyl-5-(2-fluoro-3-methoxyphenyl)-2,3-dihydropyrrolo[3,4-b]quinolin-1-one]	18.2 nM	0.07	0.14
COc1cccc(F)c1-c1cccc2c(N)c3c(nc12)CN(C1CC(C)C1)C3=O (stereo not drawn) [9-Amino-5-(2-fluoro-6-methoxyphenyl)-2-(3-methylcyclobutyl)-2,3-dihydropyrrolo[3,4-b]quinolin-1-one]	3.75 nM	0.11	0.36
CCN1Cc2nc3c(-c4cnccc4C)cccc3c(N)c2C1=O [9-Amino-2-ethyl-5-(4-methylpyridin-3-yl)-2,3-dihydropyrrolo[3,4-b]quinolin-1-one]	23.4 nM	0.08	0.14
COc1cc(-c2cccc3c(N)c4c(nc23)CN(C2CCC2)C4=O)c(OC)nn1 [Example 84, 9-Amino-2-cyclobutyl-5-(3,6-dimethoxypyradazin-4-yl)-2,3-dihydropyrrolo[3,4-b]quinolin-1-one]	0.74 nM	0.088	0.42
CCN1Cc2nc3c(-c4cnccc4OC)cccc3c(N)c2C1=O [Example 57, 9-Amino-2-ethyl-5-(4-methoxypyridin-3-yl)-2,3-dihydropyrrolo[3,4-b]quinolin-1-one]	21.4 nM	0.079	0.26
COc1ccc(CN2Cc3nc4c(-c5c(F)cccc5OC)cccc4c(N)c3C2=O)cc1Cl [9-Amino-2-(3-chloro-4-methoxybenzyl)-5-(2-fluoro-6-methoxyphenyl)-2,3-dihydropyrrolo[3,4-b]quinolin-1-one]	10.3 nM	0.088	0.15
COc1ccc(CN2Cc3nc4c(-c5cnccc5OC)cccc4c(N)c3C2=O)cc1OC [9-amino-2-(3,4-dimethoxybenzyl)-5-(4-methoxypyridin-3-yl)-2,3-dihydro-1H-pyrrolo[3,4-b]quinolin-1-one]	1.5 nM	0.23	0.37
COc1cc(-c2cccc3c(N)c4c(nc23)CN(C2CCC2)C4=O)c(C#N)cn1 [Example 96, 4-(9-Amino-2-cyclobutyl-1-oxo-2,3-dihydro-1H-pyrrolo[3,4-b]quinolin-5-yl)-6-methoxyniconitrile]	15.3 nM	0.066	0.36
Cc1ccc(-c2c(F)ccc3c(N)c4c(nc23)CN(C2CCC2)C4=O)cn1 [9-Amino-2-cyclobutyl-6-fluoro-5-(6-methylpyridin-3-yl)-2,3-dihydropyrrolo[3,4-b]quinolin-1-one]	0.305 nM	0	0.15
Cc1ccc(-c2cccc3c(N)c4c(nc23)CN(C2CC2)C4=O)c(F)n1 [9-Amino-2-cyclopropyl-5-(2-fluoro-6-methylpyridin-3-yl)-2,3-dihydropyrrolo[3,4-b]quinolin-1-one]	43.4 nM	0	0.18
Nc1c2c(nc3c(-c4ncccn4)cccc13)CN(C1CCC1)C2=O [9-Amino-2-cyclobutyl-5-pyrimidin-2-yl-2,3-dihydropyrrolo[3,4-b]quinolin-1-one]	8.3 nM	0.013	0.12
CCCN1Cc2nc3c(-c4cnccc4C)cccc3c(N)c2C1=O [9-amino-5-(4-methylpyridin-3-yl)-2-propyl-2,3-dihydro-1H-pyrrolo[3,4-b]quinolin-1-one]	55.7 nM	0.36	0.34
CCCN1Cc2nc3c(-c4c(F)cccc4OC)cccc3c(N)c2C1=O [Example 5, 9-Amino-5-(2-fluoro-6-methoxyphenyl)-2-propyl-2,3-dihydropyrrolo[3,4-b]quinolin-1-one]	5.03 nM	0.11	0.3
COc1ccc(-c2c(F)ccc3c(N)c4c(nc23)CN(C2CCC2)C4=O)c(OC)c1 [Example 100, 9-Amino-2-cyclobutyl-5-(2,4-dimethoxyphenyl)-6-fluoro-2,3-dihydropyrrolo[3,4-b]quinolin-1-one]	0.249 nM	0.044	0.23
CCCN1Cc2nc3c(-c4cc(C)ccc4C)cccc3c(N)c2C1=O [9-amino-5-(2,5-dimethylphenyl)-2-propyl-2,3-dihydro-1H-pyrrolo[3,4-b]quinolin-1-one]	56.8 nM	0.22	0.2
COc1nnccc1-c1cccc2c(N)c3c(nc12)CN(C1CCC1)C3=O [9-Amino-2-cyclobutyl-5-(3-methoxypyridazin-4-yl)-2,3-dihydropyrrolo[3,4-b]quinolin-1-one]	4.73 nM	0.082	0.43

More lines, in order of falling Ki [1], values ahead:

Ki [1]	Relative Potentiation for GABAA1 (GABAA receptor α1β2γ2)	Relative Potentiation for GABAA2 (GABAA receptor α2β3γ2)	Structure (SMILES)
42.1 nM	0.36	0.58	CCCN1Cc2nc3c(-c4cccnc4OC)cccc3c(N)c2C1=O [9-amino-5-(2-methoxypyridin-3-yl)-2-propyl-2,3-dihydro-1H-pyrrolo[3,4-b]quinolin-1-one]
39.2 nM	0.39	0.62	CCCN1Cc2nc3c(-c4cnccc4OC)cccc3c(N)c2C1=O [9-amino-5-(4-methoxypyridin-3-yl)-2-propyl-2,3-dihydro-1H-pyrrolo[3,4-b]quinolin-1-one]
30.3 nM	0.31	0.32	CCCN1Cc2nc3c(-c4cnc(F)c(C)c4)cccc3c(N)c2C1=O [9-amino-5-(6-fluoro-5-methylpyridin-3-yl)-2-propyl-2,3-dihydro-1H-pyrrolo[3,4-b]quinolin-1-one]
13.2 nM	−0.11	0.26	CCN1Cc2nc3c(-c4ccccc4OC)c(F)ccc3c(N)c2C1=O [Example 45, 9-Amino-2-ethyl-6-fluoro-5-(2-methoxyphenyl)-2,3-dihydropyrrolo[3,4-b]quinolin-1-one]
11.3 nM	−0.066	0.11	Nc1c2c(nc3c(-c4cnccn4)cccc13)CN(C1CCC1)C2=O [9-Amino-2-cyclobutyl-5-pyrazin-2-yl-2,3-dihydropyrrolo[3,4-b]quinolin-1-one]
8.36 nM	0.035	0.26	COc1cc(F)ccc1-c1cccc2c(N)c3c(nc12)CN(C1CCC1)C3=O [9-Amino-2-cyclobutyl-5-(4-fluoro-2-methoxyphenyl)-2,3-dihydropyrrolo[3,4-b]quinolin-1-one]
7.06 nM	0.29	0.87	CCCN1Cc2nc3c(-c4ccc(C)nc4Cl)cccc3c(N)c2C1=O [Example 15, 9-Amino-5-(2-chloro-6-methylpyridin-3-yl)-2-propyl-2,3-dihydropyrrolo[3,4-b]quinolin-1-one]
4.69 nM	0.017	0.19	Nc1c2c(nc3c(-c4ncccc4F)cccc13)CN(C1CCC1)C2=O [9-Amino-2-cyclobutyl-5-(3-fluoropyridin-2-yl)-2,3-dihydropyrrolo[3,4-b]quinolin-1-one]
3.85 nM	−0.038	0.064	CCN1Cc2nc3c(-c4ccc(F)cc4F)c(F)ccc3c(N)c2C1=O [9-amino-5-(2,4-difluorophenyl)-2-ethyl-6-fluoro-2,3-dihydro-1H-pyrrolo[3,4-b]quinolin-1-one]
2.63 nM	−0.04	0.19	COc1ccc(-c2c(F)ccc3c(N)c4c(nc23)CN(C2CCC2)C4=O)cn1 [9-Amino-2-cyclobutyl-6-fluoro-5-(6-methoxypyridin-3-yl)-2,3-dihydropyrrolo[3,4-b]quinolin-1-one]
2.63 nM	0.45	0.41	CCCN1Cc2nc3c(-c4ccc(C)nc4C)cccc3c(N)c2C1=O [9-amino-5-(2,6-dimethylpyridin-3-yl)-2-propyl-2,3-dihydro-1H-pyrrolo[3,4-b]quinolin-1-one]
2.39 nM	0.005	0.15	N#Cc1ccc(-c2cccc3c(N)c4c(nc23)CN(C2CCC2)C4=O)nc1 [6-(9-Amino-2-cyclobutyl-1-oxo-2,3-dihydro-1H-pyrrolo[3,4-b]quinolin-5-yl)-nicotinonitrile]
1.46 nM	−0.053	0.09	Nc1c2c(nc3c(-c4cncnc4)c(F)ccc13)CN(C1CCC1)C2=O [9-Amino-2-cyclobutyl-6-fluoro-5-pyrimidin-5-yl-2,3-dihydropyrrolo[3,4-b]quinolin-1-one]
